The text below walks through data of patent US20220072061A1, “SUBSTANCE FOR TREATMENT OR PREVENTION OF DISEASES, METHOD FOR DESIGNING THE SAME, AND METHOD FOR PREPARING THE SAME” (priority 2018, published 2022).

Data set [1] has as its system patients with menoxenia. The data set can be described thus: Clinical study against menoxenia. The data set is classed as in vivo, human. The source says:
1. Clinical data: 60 cases (in total) of outpatients and inpatients with menoxenia were enrolled, and randomly divided into a treatment group of 30 patients and a control group of 30 patients. There was no significant difference between the two groups in clinical data.
2. Diagnosis criteria: Symptoms include disorders in the menstrual cycle and menstrual period, excessive or insufficient bleeding during menstruation, and abdominal pain before and after menstruation.
3. […] Patients in the control group were orally given clomifene citrate capsules (NMPA Approval No. H31021107), 50 mg/day, started on day 5 since menstruation, for 2 consecutive months.
4. Efficacy evaluation criteria: The efficacy evaluation is based on the relevant standards in Guiding Principles for Clinical Research of New Chinese Medicines.
(§1) Total effective rate=cured rate+effective rate.

The subject of data set [2] is patients with depression. The data set can be described thus: Clinical study against depression. The data set is classed as in vivo, human. Here is the method: 1. Clinical data: 60 cases (in total) of outpatients and inpatients with depression were enrolled, and randomly divided into a treatment group of 30 patients and a control group of 30 patients. There was no significant difference between the two groups in clinical data.
2. Diagnosis criteria: The diagnosis criteria for depression from The Diagnostic and Statistical Manual of Mental Disorders.
3. […] Patients in the control group were treated with fluoxetine, the initial and treatment doses both being 20 mg/day, for a course of 4 weeks.
4. Efficacy evaluation criteria: After 4 weeks of treatment, the patients were scored by a psychiatrist based on the Hamilton Depression Rating Scale HAMD-17. “Cured” means a HAMD-17 total score <7; “effective” means a HAMD-17 total score of 8-17; and “ineffective” means a HAMD-17 total score>17.
as §1

Data set [3] concerns patients with allergic rhinitis. The data set can be described thus: Clinical application trial for treatment of allergic rhinitis. The data set is classed as in vivo, human. Here is the method: There was no significant difference between the two groups in clinical data and conditions. […] Diagnosis criteria: 2 or more clinical symptoms such as sneezing, clear water-like nasal discharge, nasal congestion, and nasal itching, appearing continuously or continually for 1 hour or more every day. It may be accompanied by eye symptoms such as eye itching and conjunctival hyperemia. Common signs often include pale nasal mucosa, edema, and watery nasal discharge. Positive in the allergen skin prick test. 3. […] 4. […] Total effective rate=cured rate+effective rate.

Data set [4] relates to patients with urticaria. The experiment in a line: Clinical study against urticaria. The data set is classed as in vivo, human. Here is the method:
1. […]. There was no significant difference between the two groups in clinical data.
3. […] The patients in the control group orally took loratadine 5 mg per time, once day, for 30 days.
(§2) 4. […] Total effective rate=cured rate+markedly effective rate+effective rate.

The test system of data set [5] is patients with ankylosing spondylitis. The experiment in a line: Clinical study in patients with ankylosing spondylitis. Type of data set: in vivo, human. As to conditions: number of patients (14 treatment, 13 control); after 1 month. From the text:
1. […] 2. […] 3. […] 4. Efficacy evaluation criteria:

Data set [6] relates to hypertensive patients. The experiment in a line: Clinical study against hypertension. Particulars: human, in vivo. Here is the method: 1. Clinical data: In this example, totally 46 hypertensive patients were treated and observed clinically, including 25 males and 21 females, 18-75 years old, with a course of disease of 0.5 to 30 years, who were randomly divided into a treatment group of 23 patients and a control group of 23 patients. There was no significant difference between the two groups in clinical data.
2. Diagnosis criteria: According to the Guidelines for Diagnosis of Hypertension in China (2010), hypertension can be diagnosed if the systolic pressure≥140 mmHg and/or the diastolic pressure≥90 mmHg. Grade 1 hypertension: systolic pressure 140 to 159 mmHg and/or diastolic pressure 90 to 99 mmHg; Grade 2 hypertension: systolic pressure 160 to 179 mmHg and/or diastolic pressure 100 to 109 mmHg; Grade 3 hypertension: systolic pressure≥180 mmHg and/or diastolic pressure≥110 mmHg.
3. […] Patients in the control group orally took Levamlodipine Beslate and losartan potassium tablets, 3 times a day under supervision of a physician, and the dose was maintained for 3 months or more.
as §2

Setting [7] is: number of patients of 30, allergic rhinitis.
The mark [8] stands for this setting: number of patients of 28, chronic urticaria.

Where a name gives a salt, the structure may show the parent alone.

For the compound `CCN(CC)CCOc1ccc(C(=C(Cl)c2ccccc2)c2ccccc2)cc1` [clomifene citrate capsules, clomifene citrate], in data set [1] (after treatment), the “Total effective rate (%)” value is reported as 66.67%. In data set [1] (number of patients of 30), this compound had a Cured of 0, an Effective of 10 and a Markedly effective of 10.

With `CNCCC(Oc1ccc(C(F)(F)F)cc1)c1ccccc1` (centres unmarked) [fluoxetine], in data set [2] (cured rate+effective rate, depression, after 4 weeks), the “Total effective rate (%)” value was 76.67%. In data set [2] (number of patients of 30, HAMD-17 total score <7 after 4 weeks), this compound came in with a Cured of 9. In data set [2] (number of patients of 30, HAMD-17 total score >17 after 4 weeks), this compound showed an Ineffective of 7. Besides, the Effective in data set [2] (number of patients of 30, HAMD-17 total score of 8-17 after 4 weeks) came to 14.

Regarding `CCOC(=O)N1CCC(=C2c3ccc(Cl)cc3CCc3cccnc32)CC1` [loratadine], in data set [3] (6-month follow-up / after drug discontinuance), the recurrence entry is on record as “allergic symptoms appeared after contact with allergens after drug discontinuance”. Moreover, in data set [3] (during the treatment, of 30 patients), the “drug adverse reaction or drug dependence” value amounted to 5 cases. The Effective in data set [3] (setting [7]) is listed as 20; in data set [4] (number of patients of 28, wheal subsided by 50% to 80%), 6. In addition, the Ineffective in data set [3] (setting [7]) was 10; in data set [4] (setting [8]), 13. For the same compound, the Cured in data set [3] (number of patients of 30, allergic rhinitis, no recurrence for 60 days) is 0; in data set [4] (setting [8]), 0. Moreover, the “Total effective rate (%)” value in data set [4] (cured rate+markedly effective rate+effective rate, chronic urticaria) is 53.57%. This compound also displayed a Markedly effective in data set [4] (number of patients of 28, wheal subsided by 80% or more) of 9.

As for `O=C(O)c1cc(/N=N/c2ccc(S(=O)(=O)Nc3ccccn3)cc2)ccc1O` [sulfasalazine enteric tablets, sulfasalazine], in data set [5], the Effective is listed as 5, the Ineffective worked out at 6 and the Markedly effective is given as 2.

Turning to “Levamlodipine Beslate and losartan potassium”, in data set [6], the adverse drug reactions is reported as 6 cases and the drug dependence is reported as 4 cases.
